Active and inactive are the calls of the source.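 How the source made its calls: active means AC50 no more than ten times the top concentration tested, that is within one log above it; inconclusive means flat curve fit with activity between 30% and 70%, or invalid poor fit; inactive means AC50 beyond ten times the top tested dose.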
The molecules below were run on S. cerevisiae Mot1-301 ts growth rescue, BacTiter-Glo ATP luminescence (assay: restored Mot1-301 yeast growth at 38.5C – whole organism, S. cerevisiae, Mot1-301 ts mutant, luminescence, dose retest, SUMOylation pathway inhibitor project, confirmation (AID 463204);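 further: growth at restrictive 38.5 degrees C of Mot1-301 OY566 strain; actives raise luminescence by restoring growth of the ts mutant at high temperature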).
For `CC1CCN(CCCOc2ccc(OCc3ccccc3)cc2)CC1`, the AC50 was > 42 µM (inactive). In the case of `Oc1cccc2ccc(/C=C/c3ccccc3Br)nc12`, the AC50 is reported as > 42 µM (inactive). `N=c1sccn1CC(=O)Nc1cccc(S(N)(=O)=O)c1` was tested, and the AC50 was > 42 µM (inactive). With `c1ccc2c(C[C@@H]3CNCCN3CCCCC3CCCCC3)cccc2c1` the AC50 was 15.6 µM. For `Cc1cccc(N2CN=c3s/c(=C\c4ccccn4)c(=O)n3C2)c1`, the AC50 was > 42 µM (inactive). In the case of `O=C(CSc1nc(-c2ccccc2)cc(=O)[nH]1)Nc1ccc(Br)cc1`, the AC50 is reported as > 42 µM (inactive). In the case of `CC(=O)Nc1cccc(OCC(=O)NS(=O)(=O)c2ccc(C)cc2)c1`, the AC50 is reported as > 42 µM (inactive). `COc1ccccc1OCCSc1nc2ccccc2n1CCC(=O)O` was tested, and the AC50 was > 42 µM (inactive). For `CCOc1cc(/C=N/NC(=O)C(=O)N/N=C/c2ccc(O)c(OCC)c2)ccc1O`, the AC50 was > 42 µM (inactive). For `Oc1ccc(Br)cc1/C=N/n1c(COc2ccccc2)n[nH]c1=S`, the AC50 was 14.2 µM. In the case of `Clc1cnc(Oc2ccc(Oc3ncc(Cl)cc3Cl)cc2)c(Cl)c1`, the AC50 is reported as > 42 µM (inactive). For `COC(=O)c1sc(NC(=O)c2ccc(Cn3cc(Cl)cn3)o2)c(C#N)c1C`, the AC50 was > 42 µM (inactive). In the case of `Cc1cc(C)n(-c2nc(-c3cccc(Cl)c3)cs2)n1`, the AC50 is reported as > 42 µM (inactive). For `CCCCNC(=O)N1CCC(CCC(=O)N(C)Cc2ccccc2)CC1`, the AC50 was > 42 µM (inactive). `CCOc1ccc(CN(C)C(C)C(=O)NCc2ccccc2)cc1` (stereo unspecified) was tested, and the AC50 was > 42 µM (inactive). `COc1ccc2[nH]cc(CCNS(=O)(=O)c3ccc(C)cc3)c2c1` was tested, and the AC50 was > 42 µM (inactive). For `COCCn1c(N)c(N(Cc2ccccc2)C(=O)CN2C(=O)NC(C)(c3ccccc3)C2=O)c(=O)[nH]c1=O` (stereo unspecified), the AC50 was > 42 µM (inactive). Molecule `CCOC(=O)c1cc([N+](=O)[O-])c([N+](=O)[O-])cc1NC(C)=O` has an AC50 of 8.71 µM. For `c1ccc(CNc2ccc3ccccc3n2)nc1`, the AC50 was > 42 µM (inactive). In the case of `O=CNCCCc1nc2ccccc2n1CCc1ccccc1`, the AC50 is reported as > 42 µM (inactive). With `CC(C)c1ccc(NC(=O)COc2nnc(-c3cccs3)c(-c3cccs3)n2)cc1` the AC50 was > 42 µM (inactive). With `O=C(OCC(=O)N1CCN(Cc2ccccc2)CC1)c1ccc(Cl)cc1` the AC50 was > 42 µM (inactive). Work on `Cc1[nH]oc(=O)c1N=Nc1ccccc1` yielded an AC50 of 30.6 µM. `N#C/C(=C\c1ccc(O)c(O)c1)C(=O)Nc1ccccc1` was tested, and the AC50 was > 42 µM (inactive). For `COc1ccc(S(=O)(=O)N2CCCC2CNC(=O)C(=O)NCc2ccccn2)cc1` (stereo unspecified), the AC50 was > 42 µM (inactive). With `CC1CCN(Cc2nc3c(c(=O)n(C)c(=O)n3C)n2CCc2ccccc2)CC1` the AC50 was > 42 µM (inactive). For `O=S(=O)(NCc1cccc(C(F)(F)F)c1)NCc1ccccc1F`, the AC50 was > 42 µM (inactive). In the case of `COc1ccc(-c2[nH]ncc2CNCCn2cccn2)c(F)c1`, the AC50 is reported as > 42 µM (inactive). `COc1ccc(OCC(=O)Nc2ccc(C)cc2)cc1` was tested, and the AC50 was > 42 µM (inactive). In the case of `CCC(=O)Nc1nc(CC(=O)Nc2ccccc2OC)cs1`, the AC50 is reported as > 42 µM (inactive). With `Cc1ccc2nc(SCC(=O)Nc3cccc(S(N)(=O)=O)c3)[nH]c2c1` the AC50 was > 42 µM (inactive). With `CN(Cc1cccnc1)Cc1cn[nH]c1-c1ccc(-c2ccccc2)cc1` the AC50 was > 42 µM (inactive). In the case of `Cc1ccccc1C(=O)NN(C)c1nc2ccccc2nc1C(F)(F)F`, the AC50 is reported as > 42 µM (inactive). In the case of `CCNC(=O)NC(C(=O)OC)C12CC3CC(CC(C3)C1)C2` (stereo unspecified), the AC50 is reported as > 42 µM (inactive). With `O=c1cnc2ccccc2n1Cc1ccccc1C(F)(F)F` the AC50 was > 42 µM (inactive). In the case of `COC(=O)[C@H](Cc1ccccc1)NC(=O)NC(C)CCc1ccccc1` (stereo partly specified), the AC50 is reported as > 42 µM (inactive). With `CCOC(=O)c1cnc2ccc(Cl)cc2c1N1CCN(C)CC1` the AC50 was > 42 µM (inactive). In the case of `CCN(CC)CC(=O)Nc1ccc(Oc2ccc(NC(=O)CN(CC)CC)cc2)cc1`, the AC50 is reported as > 42 µM (inactive). In the case of `O=C(CCc1ccccc1)NNC(=O)c1ccc(Br)cc1`, the AC50 is reported as > 42 µM (inactive). In the case of `O=C(Nc1ccc(F)cc1)c1cccnn1`, the AC50 is reported as > 42 µM (inactive). In the case of `Cc1ccc(CNC(=O)CCn2cc(-c3ccc(C)cc3)nc2CCN)cc1`, the AC50 is reported as > 42 µM (inactive). `Cc1ccc(NC(=O)CN2CCN(CCN=CC3=C(O)CC(C)(C)CC3=O)CC2)cc1` was tested, and the AC50 was > 42 µM (inactive). For `O=C(NC1CCc2ccccc21)c1cc(COc2ccc(F)cc2F)on1` (stereo unspecified), the AC50 was > 42 µM (inactive). For `CCCCSCCCNC(=O)Nc1cccc(OC)c1`, the AC50 was > 42 µM (inactive). With `COC(=O)CCC(=O)OC1(C)C(=O)C=C2C=C(C3CC3)N(Cc3ccc4c(c3)OCO4)C=C2C1=O` (stereo unspecified) the AC50 was > 42 µM (inactive). With `CCn1nccc1C(=O)Nc1nccs1` the AC50 was > 42 µM (inactive). `Cc1cccc(NC(=S)NCc2ccco2)c1C` was tested, and the AC50 was > 42 µM (inactive). In the case of `Cc1ccc(N/C=C(\C#N)c2ccc(OCCCF)cc2)cc1`, the AC50 is reported as > 42 µM (inactive). With `O=Cc1cn(Cc2ccccc2F)c2ccccc12` the AC50 was > 42 µM (inactive). In the case of `O=c1c2ccccc2nc(SCc2ccc([N+](=O)[O-])cc2)n1CCCO`, the AC50 is reported as > 42 µM (inactive). In the case of `C=C(Cl)COC(=O)C1C2C=CC(C2)C1C(=O)O` (stereo unspecified), the AC50 is reported as > 42 µM (inactive). For `COc1cc(/C=N/n2c(C3CCCCC3)n[nH]c2=S)cc(OC)c1O`, the AC50 was > 42 µM (inactive). In the case of `CC(C)(C)NC(=O)CC1C(=O)NCCN1Cc1c(F)cccc1Cl` (stereo unspecified), the AC50 is reported as > 42 µM (inactive). `OCCN1CN=C(Nc2nc3ccccc3o2)NC1` was tested, and the AC50 was > 42 µM (inactive). For `CCc1c(C)nc(N2CCN(Cc3ccccc3)CC2)[nH]c1=O`, the AC50 was > 42 µM (inactive). With `COc1cccc(/C=C/C(=O)OCC(=O)Nc2ccc(Cl)cn2)c1` the AC50 was > 42 µM (inactive). In the case of `CC1CCC(C(C)C)C(OC(=O)COC(=O)c2cccn2C)C1` (stereo unspecified), the AC50 is reported as > 42 µM (inactive). For `CC(C)C/C(=N/O)c1c[nH]c2ccccc12`, the AC50 was > 42 µM (inactive). In the case of `CCCCn1c2c(c(=O)n(C)c1=O)C(c1ccc(OC)cc1)N1CCCCCC1=N2` (stereo unspecified), the AC50 is reported as > 42 µM (inactive). In the case of `Cc1cc(C)cc(NC(=O)C2CCCN(S(=O)(=O)c3ccc4[nH]c(=O)ccc4c3)C2)c1` (stereo unspecified), the AC50 is reported as > 42 µM (inactive). `Cc1cc(=O)oc2ccc(OC(=O)CC(C)C)cc12` was tested, and the AC50 was > 42 µM (inactive). For `COc1ccc(C(=O)OCC(=O)c2ccccc2)cc1S(=O)(=O)N1CCOCC1`, the AC50 was > 42 µM (inactive). In the case of `CC1=C(C(=O)OCc2ccccc2)C(c2cccc(F)c2)NC(=O)N1` (stereo unspecified), the AC50 is reported as > 42 µM (inactive). `Cc1ccc(NC2c3ncccc3C(=O)N2C2CCCCC2)cc1C` (stereo unspecified) gave an AC50 of 32.5 µM. `CC(=O)N1CC(=O)Nc2ccc(Cl)cc2C1c1ccccc1` (stereo unspecified) was tested, and the AC50 was > 42 µM (inactive). For `O=S(=O)(c1ccc(S(=O)(=O)N2CCCC2)cc1)N1CCCCC1`, the AC50 was > 42 µM (inactive). `CCOc1ccc(NC(=O)CN(C)C(=O)c2ccc(OCc3ccccc3)c(OC)c2)cc1OCC` was tested, and the AC50 was > 42 µM (inactive). `N#Cc1ccc(C23CC4(C2)[C@H](CN(Cc2ccc(C(F)(F)F)cc2)[C@@H]4c2ccccc2)C3c2ccc(C(F)(F)F)cc2)cc1` (stereo partly specified) was tested, and the AC50 was > 42 µM (inactive). For `CCOc1ccc(Cl)cc1S(=O)(=O)N1CCC(C(=O)NCc2cccnc2)CC1`, the AC50 was > 42 µM (inactive). For `CCN(C(=O)COC(=O)c1c(-c2ccccc2)noc1C)c1c(N)n(Cc2ccccc2)c(=O)[nH]c1=O`, the AC50 was > 42 µM (inactive). `CCOc1ccccc1C(=O)NCc1ccc2c(c1)OCO2` was tested, and the AC50 was > 42 µM (inactive). In the case of `CCN(CC)S(=O)(=O)c1ccc(S(=O)(=O)N2CCC(C(=O)NC3CCN(Cc4ccccc4)CC3)CC2)cc1`, the AC50 is reported as > 42 µM (inactive). With `Cc1ccc(C(C(=O)NCC2CCCO2)N(Cc2ccccc2F)C(=O)Cn2nnc(-c3cccs3)n2)cc1` (stereo unspecified) the AC50 was > 42 µM (inactive). For `Cc1cc(CNC(=O)C2CCC(=O)N(Cc3ccccc3F)C2)on1` (stereo unspecified), the AC50 was > 42 µM (inactive). `CCc1nn(C)c(N)c1C` was tested, and the AC50 was > 42 µM (inactive). With `CC(=O)N1CCc2cc(S(=O)(=O)CCC(=O)N3CCN(C(=O)c4ccco4)CC3)ccc21` the AC50 was > 42 µM (inactive). With `N#C/C(=C\c1cc([N+](=O)[O-])c(N2CCOCC2)cc1N1CCOCC1)c1nc2ccccc2[nH]1` the AC50 was > 42 µM (inactive). `COc1cc(S(=O)(=O)NC2CCCC2)c(OC)cc1C` was tested, and the AC50 was > 42 µM (inactive). For `Cc1cc(=O)n2[nH]c(-c3ccc(F)cc3)nc2n1`, the AC50 was > 42 µM (inactive). `O=C(O)CCC(NC(=O)c1ccc(Cl)cc1)C(=O)O` (stereo unspecified) was tested, and the AC50 was > 42 µM (inactive). For `CCOC(=O)C1CCN(C(=O)c2sccc2Cl)CC1`, the AC50 was > 42 µM (inactive). `NC(=O)CC(NC(=S)NCc1ccccc1)C(=O)O` (stereo unspecified) was tested, and the AC50 was > 42 µM (inactive). With `CCc1cc2c(NCCO)ncnc2s1` the AC50 was > 42 µM (inactive). `CCN1C(=O)c2cccc3c(S(=O)(=O)Nc4ccc(OC)cc4OC)ccc1c23` was tested, and the AC50 was > 42 µM (inactive). In the case of `CCOC(=O)c1ccc(NC(=O)c2nc[nH]c2C(=O)N2CCc3ccccc3C2)cc1`, the AC50 is reported as > 42 µM (inactive). With `Cc1ccc(NC(=O)CN2C(=O)COc3ccc(S(=O)(=O)N4CCOCC4)cc32)cc1F` the AC50 was > 42 µM (inactive). `COc1cc2c(cc1OC)CN(S(=O)(=O)c1cccc(F)c1)CC2` was tested, and the AC50 was > 42 µM (inactive). `Cc1cc(C)c[n+](-c2nc3ccccc3nc2[N-]S(=O)(=O)c2ccc(Br)s2)c1` was tested, and the AC50 was > 42 µM (inactive). For `CCCN1C(=O)c2ccc(C(=O)Nc3nccs3)cc2C1=O`, the AC50 was > 42 µM (inactive). With `Cc1ccc(C(=O)NC(NC(=O)c2ccc(C)cc2)C(Cl)Cl)cc1` the AC50 was > 42 µM (inactive). `O=[N+]([O-])c1ccccc1CN1CC=C(c2ccc(F)cc2)CC1` was tested, and the AC50 was > 42 µM (inactive). For `CC1C(=O)CC(c2ccccc2)NC1c1ccccc1` (stereo unspecified), the AC50 was > 42 µM (inactive). `COC(=O)c1ccc(CN2CCN(C3CCCCC3)C(CCO)C2)cc1` (stereo unspecified) was tested, and the AC50 was > 42 µM (inactive). `COc1ccc(N2C(=O)CC(NCc3cccs3)C2=O)cc1` (stereo unspecified) was tested, and the AC50 was > 42 µM (inactive). For `O=C(Nc1ccc2c(c1)CCCN2C(=O)c1cccs1)c1cccc(F)c1`, the AC50 was > 42 µM (inactive). For `CC1CCN(CCCCOc2cccc(Br)c2)CC1`, the AC50 was > 42 µM (inactive). `O=C1CC(c2ccccc2)C(=O)N1c1cccc(O)c1` (stereo unspecified) was tested, and the AC50 was > 42 µM (inactive). `O=C(N/N=C\c1cn(-c2ccccc2)nc1-c1ccccc1)c1ccc(Br)o1` was tested, and the AC50 was > 42 µM (inactive). For `CC(=O)/C=C/n1c(=S)oc2ccccc21`, the AC50 was 11.3 µM. `CS(=O)(=O)N1CCCC(C(=O)Nc2ccc(F)cc2F)C1` (stereo unspecified) was tested, and the AC50 was > 42 µM (inactive). `COC(=O)C12CCC3(SCCS3)C(C(=O)OC)(CCC13SCCS3)C2` gave an AC50 of 7.24 µM.

Source: PubChem BioAssay AID463204 (Broad Institute, 2010)
